Laboratory results as given in article PMC6053381, “Novel 2-phenyloxypyrimidine derivative induces apoptosis and autophagy via inhibiting PI3K pathway and activating MAPK/ERK signaling in hepatocellular carcinoma cells” (Scientific Reports, 2018).
Read-outs that look alike come from different tables or passages of the source.

Columns and labels:
[1] = tested on: QGY-7703; assay: CellTiter-Glo luminescent cell viability assay; format: cell-based; details: read-out: Anti-proliferative activity IC50 QGY-7703
Description: (§1) The in vitro antitumor activity of all compounds was screened against six HCC cell lines by CellTiter-Glo luminescent cell viability assay as described earlier. […] After a comprehensive assessment of PDGFR inhibition, cellular activity against HCC cells as well as potential druggability, E5 was chosen to investigate its kinase profiling, antitumor activity and molecular mechanism in the following study. […]
(§2) authenticated by using short tandem repeat (STR) matching analysis. No mycoplasma contamination was detected.
(§3) CellTiter-Glo luminescent cell viability assay
(§4) For experiments hepatocellular carcinoma cells were seeded at 4000 cells per well in 96-well plates. After overnight incubation, solution of compounds in DMSO at various concentrations were added to the cells and further incubated for 120 h. Cell viability was measured with the CellTiter-Glo Luminescent Cell Viability Assay (Promega) according to the manufacturer’s instructions. Luminescence was measured using an EnVision Multilabel Plate Reader (Perkin-Elmer). The cytotoxicity of the compounds was expressed as the percent age of luminescence relative to that of untreated cells . The concentration of compound producing 50% of cell proliferation (IC50) was calculated by nonlinear regression analysis of the response-concentration (log) curve, using the Graph-Pad Prism program package (Graph Pad Software; San Diego, CA). Results are expressed as the means of two […] experiments

[2] = tested on: Hep3B; assay: CellTiter-Glo luminescent cell viability assay; format: cell-based; details: 120 h incubation, read-out: Anti-proliferative activity IC50 Hep3B
Description: as §1, §2, §3, §4

[3] = tested on: SNU368; assay: CellTiter-Glo luminescent cell viability assay; format: cell-based; details: 120 h incubation, read-out: Anti-proliferative activity IC50 SNU368
Description: as §1, §2, §3, §4

[4] = tested on: BEL7404; assay: CellTiter-Glo luminescent cell viability assay; format: cell-based; details: read-out: Anti-proliferative activity IC50 BEL7404
Description: as §1, §2, §3, §4

[5] = tested on: MHCC97-L; assay: CellTiter-Glo luminescent cell viability assay; format: cell-based; details: 120 h incubation, read-out: Anti-proliferative activity IC50 MHCC97-L
Description: as §1, §2, §3, §4

[6] = tested on: SMMC-7721; assay: CellTiter-Glo luminescent cell viability assay; format: cell-based; details: read-out: Anti-proliferative activity IC50 SMMC-7721
Description: as §1, §2, §3, §4

[7] = molecular target: PDGFRα (Homo sapiens, UniProt P16234); assay: PDGFR kinase assay, Caliper microfluidic mobility shift; format: biochemical; details: compound at 1 µM, averages of two separate experiments
Description: (§5) In vitro inhibitory activities of all compounds at 1 μM against PDGFRα and PDGFRβ were evaluated using Caliper microfluidic mobility shift technology. […] At the same concentration, only E5 inhibited greater than 50% of PDGFRβ activity (Fig. 2B).
(§6) PDGFR kinase activity was measured using Caliper microfluidic mobility shift technology. Briefly, 2 μL compound solution (25 μM) in 25% DMSO per well were added into the 384 well microtiter plates. Then, 10 μL per well of enzyme solution (100 mM HEPES, 10 mM MgCl2, Brij35 (30%) 100 μL, 1 mM DTT, 20 ng enzyme) was added. After a brief centrifugation at 1,000 rpm, the kinase reactions were started by addition of 38 μL per well of peptide/ATP-solution (40 μM ATP, 6.5 μM peptide 5′-FAM-KKKKEEIYFFF-NH2, Tris-HCl buffer, pH 7.0) incubated at 30 °C for 60 min and stopped by the addition of 20 μL 35 mM EDTA per well. The electrophoretic separation of the phosphorylated and non-phosphorylated peptides was then carried out on LabChip EZ Reader II (Caliper Life Sciences). All other kinase reactions were carried out as previously reported using the Kinase-Glo Plus or ADP-Glo assay. Kinase inhibition rates were calculated per manufacturer’s instructions.

[8] = molecular target: PDGFRβ (Homo sapiens, UniProt P09619); assay: as above; format: biochemical; details: compound at 1 µM, averages of two separate experiments
Description: as §5, §6

Chain of PDGFRα (P16234 24-1089): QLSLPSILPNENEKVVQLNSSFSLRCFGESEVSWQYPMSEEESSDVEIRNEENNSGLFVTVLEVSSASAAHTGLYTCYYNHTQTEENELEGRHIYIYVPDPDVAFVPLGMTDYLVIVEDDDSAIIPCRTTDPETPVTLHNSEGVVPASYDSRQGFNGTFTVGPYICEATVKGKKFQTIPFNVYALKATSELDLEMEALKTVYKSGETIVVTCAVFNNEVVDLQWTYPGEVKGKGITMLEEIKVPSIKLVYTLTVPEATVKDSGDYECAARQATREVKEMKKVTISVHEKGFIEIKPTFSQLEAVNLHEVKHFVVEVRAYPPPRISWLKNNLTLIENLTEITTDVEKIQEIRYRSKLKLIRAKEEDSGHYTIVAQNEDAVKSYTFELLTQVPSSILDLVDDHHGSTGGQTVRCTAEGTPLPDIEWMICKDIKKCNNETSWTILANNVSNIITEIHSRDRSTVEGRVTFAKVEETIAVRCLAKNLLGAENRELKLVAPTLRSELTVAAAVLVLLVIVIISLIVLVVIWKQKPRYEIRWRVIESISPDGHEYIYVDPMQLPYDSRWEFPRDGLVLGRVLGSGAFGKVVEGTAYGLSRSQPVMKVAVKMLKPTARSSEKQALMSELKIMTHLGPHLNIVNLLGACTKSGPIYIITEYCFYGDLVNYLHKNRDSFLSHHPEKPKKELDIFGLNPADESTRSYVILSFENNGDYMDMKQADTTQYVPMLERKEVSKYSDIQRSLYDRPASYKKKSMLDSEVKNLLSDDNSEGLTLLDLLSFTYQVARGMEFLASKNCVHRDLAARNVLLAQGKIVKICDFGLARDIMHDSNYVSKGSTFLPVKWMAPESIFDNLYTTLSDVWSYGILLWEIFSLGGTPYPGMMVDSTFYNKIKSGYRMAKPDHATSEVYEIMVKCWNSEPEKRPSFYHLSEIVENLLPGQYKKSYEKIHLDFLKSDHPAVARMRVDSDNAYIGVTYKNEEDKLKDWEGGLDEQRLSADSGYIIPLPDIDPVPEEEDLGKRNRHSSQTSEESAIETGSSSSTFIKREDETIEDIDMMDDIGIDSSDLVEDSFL
Chain of PDGFRβ (P09619 33-1106): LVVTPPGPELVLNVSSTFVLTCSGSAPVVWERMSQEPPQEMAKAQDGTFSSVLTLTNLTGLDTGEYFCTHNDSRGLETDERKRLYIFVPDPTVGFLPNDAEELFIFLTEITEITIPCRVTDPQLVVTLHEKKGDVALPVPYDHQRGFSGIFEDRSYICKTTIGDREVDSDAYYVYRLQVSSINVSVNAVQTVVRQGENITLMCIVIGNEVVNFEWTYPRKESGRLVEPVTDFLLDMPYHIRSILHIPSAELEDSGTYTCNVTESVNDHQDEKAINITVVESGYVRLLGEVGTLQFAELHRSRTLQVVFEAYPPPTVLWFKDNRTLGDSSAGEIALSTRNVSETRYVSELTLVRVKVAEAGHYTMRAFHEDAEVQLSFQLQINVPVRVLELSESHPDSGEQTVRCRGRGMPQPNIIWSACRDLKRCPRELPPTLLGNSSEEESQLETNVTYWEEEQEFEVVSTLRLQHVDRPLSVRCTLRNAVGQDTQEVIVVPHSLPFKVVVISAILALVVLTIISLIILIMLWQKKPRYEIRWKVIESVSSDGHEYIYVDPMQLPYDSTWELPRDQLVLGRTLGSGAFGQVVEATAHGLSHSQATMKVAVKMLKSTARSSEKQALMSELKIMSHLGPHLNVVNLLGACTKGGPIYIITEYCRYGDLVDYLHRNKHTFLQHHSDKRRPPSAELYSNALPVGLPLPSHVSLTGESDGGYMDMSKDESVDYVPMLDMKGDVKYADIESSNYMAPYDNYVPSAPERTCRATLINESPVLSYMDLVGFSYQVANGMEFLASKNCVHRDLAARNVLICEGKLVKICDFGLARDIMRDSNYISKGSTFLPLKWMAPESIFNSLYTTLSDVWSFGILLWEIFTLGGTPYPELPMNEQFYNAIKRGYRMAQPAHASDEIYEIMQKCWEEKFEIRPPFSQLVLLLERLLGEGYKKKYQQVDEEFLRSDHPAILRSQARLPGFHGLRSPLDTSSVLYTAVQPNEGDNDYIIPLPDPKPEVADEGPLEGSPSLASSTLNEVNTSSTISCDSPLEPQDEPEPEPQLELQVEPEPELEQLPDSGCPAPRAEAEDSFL

| SMILES | IC50 ([1]; Homo sapiens, QGY-7703, 120 h incubation) | IC50 ([2]; Homo sapiens, Hep3B) | IC50 [3] | IC50 ([4]; Homo sapiens, BEL-7404, 120 h incubation) | IC50 ([5]; MHCC97L) | IC50 ([6]; Homo sapiens, SMMC-7721, 120 h incubation) | inhibition at 1 µM ([7]; read-out: Inhibition effect (%) PDGFRα) | inhibition at 1 µM ([8]; read-out: Inhibition effect (%) PDGFRβ) | IC50 ([1]; 120 h incubation) | IC50 [2] | IC50 ([4]; 120 h incubation) | IC50 [5] | IC50 ([6]; 120 h incubation) | Inhibition effect (%) PDGFRβ [8] | Inhibition effect (%) PDGFRα [7] |
| --- | --- | --- | --- | --- | --- | --- | --- | --- | --- | --- | --- | --- | --- | --- | --- |
| Cc1ccc(N)cc1Oc1nccc(-c2cccnc2)n1 [A1] | 24.5 µM | 15.8 µM | 85.7 µM | 10.8 µM | 15.1 µM | 13.6 µM | 39.1% | 21.4% | – | – | – | – | – | – | – |
| Cc1ccc(NC(=O)Cc2ccccc2)cc1Oc1nccc(-c2cccnc2)n1 [A2] | – | – | 112 µM | – | – | – | – | – | 59.8 µM | 39.5 µM | 39.3 µM | > 200 µM | 84.3 µM | 40.73% | – |
| Cc1ccc(C(=O)Nc2ccc(C)c(Oc3nccc(-c4cccnc4)n3)c2)cc1 [A3] | – | – | 51.4 µM | – | – | – | – | – | 47 µM | 21.2 µM | 32.8 µM | 22.3 µM | 25.1 µM | 45.50% | 45.45% |
| Cc1cccc(C(=O)Nc2ccc(C)c(Oc3nccc(-c4cccnc4)n3)c2)c1 [A4] | – | – | 54 µM | – | – | – | – | – | 39.8 µM | 17.5 µM | 12.2 µM | 24.5 µM | 17.5 µM | 43.74% | – |
| COc1ccc(C(=O)Nc2ccc(C)c(Oc3nccc(-c4cccnc4)n3)c2)cc1 [A5] | – | – | 49.5 µM | – | – | – | – | – | 40.5 µM | 23.3 µM | 15.6 µM | 31.3 µM | 23.5 µM | 33.70% | 45.20% |
| Cc1ccc(NC(=O)c2ccc(Cl)cc2)cc1Oc1nccc(-c2cccnc2)n1 [A6] | – | – | 24 µM | – | – | – | – | – | 21.9 µM | 10.7 µM | 9.5 µM | 16.2 µM | 12.3 µM | 35.96% | 47.73% |
| Cc1ccc(NC(=O)c2cccc(Cl)c2)cc1Oc1nccc(-c2cccnc2)n1 [A7] | – | – | 45.9 µM | – | – | – | – | – | 57.8 µM | 18.9 µM | 32.8 µM | 51.5 µM | 27.2 µM | 40.23% | – |
| Cc1ccc(NC(=O)c2ccc([N+](=O)[O-])cc2)cc1Oc1nccc(-c2cccnc2)n1 [A8] | – | – | 25.7 µM | – | – | – | – | – | 24.6 µM | 14.3 µM | 20.1 µM | 34.6 µM | 10.1 µM | 43.24% | – |
| Cc1ccc(NC(=O)c2cccc([N+](=O)[O-])c2)cc1Oc1nccc(-c2cccnc2)n1 [A9] | – | – | 51.5 µM | – | – | – | – | – | 48.4 µM | 28.4 µM | 23.8 µM | 53.2 µM | 26.8 µM | 23.41% | 23.63% |
| Cc1ccc(NC(=O)c2ccc(F)cc2)cc1Oc1nccc(-c2cccnc2)n1 [A10] | – | – | 38.7 µM | – | – | – | – | – | 43.4 µM | 20.1 µM | 28.2 µM | 35.7 µM | 21.1 µM | 30.94% | 40.63% |
| Cc1ccc(NC(=O)c2cccnc2)cc1Oc1nccc(-c2cccnc2)n1 [A11] | – | – | 94.6 µM | – | – | – | – | – | 252 µM | 105 µM | 74.2 µM | 89.3 µM | 79.7 µM | 6.84% | 42.91% |
| Cc1ccc(NC(=O)c2ccncc2)cc1Oc1nccc(-c2cccnc2)n1 [A12] | – | – | 287 µM | – | – | – | – | – | 170 µM | 130 µM | 134 µM | 281 µM | 113 µM | 31.94% | 43.17% |
| Cc1ccc(NC(=O)c2ccccc2)cc1Oc1nccc(-c2ccccc2)n1 [B1] | – | – | 17.7 µM | – | – | – | – | – | 5.8 µM | 2.7 µM | 10.5 µM | 4.9 µM | 2.7 µM | 12.87% | 2.32% |
| Cc1ccc(NC(=O)Cc2ccccc2)cc1Oc1nccc(-c2ccccc2)n1 [B2] | – | – | 24.8 µM | – | – | – | – | – | 20.6 µM | 13 µM | 14.4 µM | 16.9 µM | 11.7 µM | 17.63% | 21.09% |
| Cc1ccc(C(=O)Nc2ccc(C)c(Oc3nccc(-c4ccccc4)n3)c2)cc1 [B3] | – | – | 12.8 µM | – | – | – | – | – | 7.3 µM | 4.6 µM | 3.7 µM | 6.1 µM | 6 µM | 26.17% | 23.12% |
| Cc1cccc(C(=O)Nc2ccc(C)c(Oc3nccc(-c4ccccc4)n3)c2)c1 [B4] | – | – | 12.9 µM | – | – | – | – | – | 10.2 µM | 6.4 µM | 9.5 µM | 7 µM | 6.2 µM | 24.42% | 35.04% |
| COc1ccc(C(=O)Nc2ccc(C)c(Oc3nccc(-c4ccccc4)n3)c2)cc1 [B5] | – | – | 15.8 µM | – | – | – | – | – | 14.9 µM | 9.2 µM | 7.9 µM | 9.8 µM | 8.4 µM | 19.39% | 1.81% |
| Cc1ccc(NC(=O)c2ccc(Cl)cc2)cc1Oc1nccc(-c2ccccc2)n1 [B6] | – | – | 15 µM | – | – | – | – | – | 15.4 µM | 7.9 µM | 13.4 µM | 10.5 µM | 9.7 µM | 18.64% | 12.21% |
| Cc1ccc(NC(=O)c2cccc(Cl)c2)cc1Oc1nccc(-c2ccccc2)n1 [B7] | – | – | 14 µM | – | – | – | – | – | 25.8 µM | 15.5 µM | 18.3 µM | > 200 µM | 17 µM | 16.63% | 31.49% |
| Cc1ccc(NC(=O)c2ccc([N+](=O)[O-])cc2)cc1Oc1nccc(-c2ccccc2)n1 [B8] | – | – | 12 µM | – | – | – | – | – | 14.4 µM | 9 µM | 9.9 µM | 14 µM | 7.5 µM | 37.71% | 26.17% |
| Cc1ccc(NC(=O)c2cccc([N+](=O)[O-])c2)cc1Oc1nccc(-c2ccccc2)n1 [B9] | – | – | 16.8 µM | – | – | – | – | – | 19.2 µM | 83.2 µM | 12.9 µM | > 200 µM | 13.8 µM | 19.14% | 21.34% |
| Cc1ccc(NC(=O)c2ccc(F)cc2)cc1Oc1nccc(-c2ccccc2)n1 [B10] | – | – | 12.6 µM | – | – | – | – | – | 10.9 µM | 5.8 µM | 8.1 µM | 6.3 µM | 3.9 µM | 15.63% | 19.57% |
| Cc1ccc(NC(=O)c2cccnc2)cc1Oc1nccc(-c2ccccc2)n1 [B11] | – | – | 18 µM | – | – | – | – | – | 81.1 µM | 44.2 µM | 21.6 µM | 53.5 µM | 20.2 µM | 5.08% | 32.00% |
| Cc1ccc(NC(=O)c2ccoc2)cc1Oc1nccc(-c2cc3ccccc3o2)n1 [E4] | – | – | 11.4 µM | – | – | – | – | – | – | 15.8 µM | 5.2 µM | – | 0.4 µM | 7.35% | 27.18% |
